Reference: patent US20250100995A1, “CEREBLON BINDING COMPOUNDS, COMPOSITIONS THEREOF, AND METHODS OF TREATMENT THEREWITH” (CELGENE CORPORATION, priority 2021, published 2025)
Where a name gives a salt, the structure may show the parent alone.

Target: T1, AR (Homo sapiens, UniProt P10275)
T1 construct: endogenous in cells; host or cells: VCaP cells
T1 sequence (P10275 1-920): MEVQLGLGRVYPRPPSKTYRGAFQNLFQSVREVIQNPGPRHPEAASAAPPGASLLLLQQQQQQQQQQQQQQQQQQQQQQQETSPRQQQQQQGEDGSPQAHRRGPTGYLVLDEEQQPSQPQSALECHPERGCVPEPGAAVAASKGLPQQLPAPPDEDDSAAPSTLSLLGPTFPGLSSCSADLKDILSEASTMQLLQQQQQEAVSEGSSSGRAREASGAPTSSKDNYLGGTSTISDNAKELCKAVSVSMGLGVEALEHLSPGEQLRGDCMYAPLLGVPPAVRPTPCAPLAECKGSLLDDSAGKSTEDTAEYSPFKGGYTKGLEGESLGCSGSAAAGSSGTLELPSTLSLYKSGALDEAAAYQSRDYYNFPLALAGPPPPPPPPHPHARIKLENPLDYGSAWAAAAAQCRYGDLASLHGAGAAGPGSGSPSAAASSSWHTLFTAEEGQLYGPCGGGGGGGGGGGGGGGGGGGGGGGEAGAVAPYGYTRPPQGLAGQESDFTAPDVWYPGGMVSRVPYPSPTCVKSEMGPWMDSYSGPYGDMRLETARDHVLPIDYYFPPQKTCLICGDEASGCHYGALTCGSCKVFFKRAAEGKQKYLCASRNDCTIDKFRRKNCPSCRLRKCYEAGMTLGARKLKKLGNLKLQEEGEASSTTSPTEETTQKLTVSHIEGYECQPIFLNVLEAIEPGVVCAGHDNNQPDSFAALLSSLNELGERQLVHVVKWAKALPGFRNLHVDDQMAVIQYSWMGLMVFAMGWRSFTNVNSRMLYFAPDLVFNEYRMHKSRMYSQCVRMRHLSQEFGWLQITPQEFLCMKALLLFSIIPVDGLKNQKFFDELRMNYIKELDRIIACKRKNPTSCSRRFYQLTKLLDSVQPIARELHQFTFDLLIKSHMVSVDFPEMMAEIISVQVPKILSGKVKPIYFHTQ
Assay: VCAP AR Degradation Assay
Assay type: cell-based
Details: VCaP cells, 24 h, AR ELISA; for DC50: concentration of compound when AR level = 50% of DMSO control; for Y: lowest measured AR level normalized to DMSO control (AR degradation efficiency)
Experimental: VCAP AR Degradation Assay. Test compounds were pre-dispensed into a Corning CellBind 96-well clear bottom plate (Cat #3300) using an acoustic dispenser to make a 10-point concentration series at 1:3 dilution for each compound. The final top concentration of each compound was 5 μM. DMSO at a final concentration of 0.1% was used as a control. VCaP cells cultured in DMEM with 8% fetal bovine serum (FBS) were seeded at 50K cells per well in a 200 μL volume into the compound plate and incubated at 37° C. in a CO2 incubator for 24 h. The medium was carefully removed from the cells and the plate was placed on ice. One hundred μL of ice-cold 1× cell lysis buffer from Cell Signaling Technologies (Cat #9803) was added to each well of the cells and the plate was incubated at 4° C. on a shaker for 1 h. Fifteen μL of cell lysate was used for AR ELISA detection using a PathScan Total Sandwich AR ELISA kit (Cell Signaling Technology, Cat #12580). AR levels in compound-treated wells were normalized to that of DMSO control and expressed as percent of control (PoC) (y). A Four Parameter Logistic Model (Sigmoidal Dose-Response Model) was used to determine the compound's DC50, and EC50, using the following equation: […]
The lowest measured AR level normalized to DMSO control in response to compound treatment, termed Y value, was used to characterize the compound-mediated AR degradation efficiency.

C[C@@H]1CN(CCO[C@H]2CC[C@H](N3C(=S)N(c4ccc(C#N)c(C(F)(F)F)c4)C(=O)C3(C)C)CC2)C[C@H](C)N1CCCOc1cc(C2CCC(=O)NC2=O)ccn1 (stereo partly drawn) [Cmpd 16, 4-(3-(trans-4-(2-((3R,5S)-4-(3-((4-(2,6-Dioxopiperidin-3-yl)pyridin-2-yl)oxy)propyl)-3,5-dimethylpiperazin-1-yl)ethoxy)cyclohexyl)-4,4-dimethyl-5-oxo-2-thioxoimidazolidin-1-yl)-2-(trifluoromethyl)benzonitrile hydrochloride]
DC50: 50 to 200 nM | Y: *** (40%<Y<80%)

C[C@@H]1CN(CCCC[C@H]2CC[C@H](N3C(=S)N(c4ccc(C#N)c(C(F)(F)F)c4)C(=O)C3(C)C)CC2)C[C@H](C)N1CC(=O)Nc1cc(N2CCC(=O)NC2=O)ccn1 [Cmpd 17, 2-((2R,6S)-4-(4-((trans)-4-(3-(4-Cyano-3-(trifluoromethyl)phenyl)-5,5-dimethyl-4-oxo-2-thioxoimidazolidin-1-yl)cyclohexyl)butyl)-2,6-dimethylpiperazin-1-yl)-N-(4-(2,4-dioxotetrahydropyrimidin-1(2H)-yl)pyridin-2-yl)acetamide]
DC50: 5 to 50 nM | Y: ** (20%<Y≤40%)

C[C@@H]1CN(CCCC[C@H]2CC[C@H](N3C(=S)N(c4ccc(C#N)c(C(F)(F)F)c4)C(=O)C3(C)C)CC2)C[C@H](C)N1CC(=O)Nc1ccc(N2CCC(=O)NC2=O)cn1 [Cmpd 18, 2-((2R,6S)-4-(4-((trans)-4-(3-(4-Cyano-3-(trifluoromethyl)phenyl)-5,5-dimethyl-4-oxo-2-thioxoimidazolidin-1-yl)cyclohexyl)butyl)-2,6-dimethylpiperazin-1-yl)-N-(5-(2,4-dioxotetrahydropyrimidin-1(2H)-yl)pyridin-2-yl)acetamide]
DC50: 5 to 50 nM | Y: ** (20%<Y≤40%)

C[C@@H]1CN(CCCC[C@H]2CC[C@H](N3C(=S)N(c4ccc(C#N)c(C(F)(F)F)c4)C(=O)C3(C)C)CC2)C[C@H](C)N1CC(=O)Nc1ccc(C2CCC(=O)NC2=O)cn1 (stereo partly drawn) [Cmpd 19, 2-((2R,6S)-4-(4-((trans)-4-(3-(4-Cyano-3-(trifluoromethyl)phenyl)-5,5-dimethyl-4-oxo-2-thioxoimidazolidin-1-yl)cyclohexyl)butyl)-2,6-dimethylpiperazin-1-yl)-N-(5-(2,6-dioxopiperidin-3-yl)pyridin-2-yl)acetamide]
DC50: ≤ 5 nM | Y: * (0<Y≤20%)

CC1(C)C(=O)N(c2ccc(C#N)c(C(F)(F)F)c2)C(=S)N1[C@H]1CC[C@H](CCCN2CCN(CC(=O)Nc3cc(C4CCC(=O)NC4=O)ccn3)[C@@H](C(F)(F)F)C2)CC1 (stereo partly drawn) [Cmpd 20, 2-((R)-4-(3-((trans)-4-(3-(4-Cyano-3-(trifluoromethyl)phenyl)-5,5-dimethyl-4-oxo-2-thioxoimidazolidin-1-yl)cyclohexyl)propyl)-2-(trifluoromethyl)piperazin-1-yl)-N-(4-(2,6-dioxopiperidin-3-yl)pyridin-2-yl)acetamide]
DC50: 5 to 50 nM | Y: ** (20%<Y≤40%)

CC1(C)C(=O)N(c2ccc(C#N)c(C(F)(F)F)c2)C(=S)N1[C@H]1CC[C@H](OCCN2CCN(CC(=O)Nc3cc(C4CCC(=O)NC4=O)ccn3)[C@@H](C(F)(F)F)C2)CC1 (stereo partly drawn) [Cmpd 21, 2-((R)-4-(2-(((trans)-4-(3-(4-Cyano-3-(trifluoromethyl)phenyl)-5,5-dimethyl-4-oxo-2-thioxoimidazolidin-1-yl)cyclohexyl)oxy)ethyl)-2-(trifluoromethyl)piperazin-1-yl)-N-(4-(2,6-dioxopiperidin-3-yl)pyridin-2-yl)acetamide]
DC50: 5 to 50 nM | Y: * (0<Y≤20%)

CC1(C)C(=O)N(c2cnc(C#N)c(C(F)(F)F)c2)C(=S)N1[C@H]1CC[C@H](OCCN2CCN(CC(=O)Nc3cc(C4CCC(=O)NC4=O)ccn3)[C@@H](C(F)(F)F)C2)CC1 (stereo partly drawn) [Cmpd 22, 2-((R)-4-(2-(((trans)-4-(3-(6-Cyano-5-(trifluoromethyl)pyridin-3-yl)-5,5-dimethyl-4-oxo-2-thioxoimidazolidin-1-yl)cyclohexyl)oxy)ethyl)-2-(trifluoromethyl)piperazin-1-yl)-N-(4-(2,6-dioxopiperidin-3-yl)pyridin-2-yl)acetamide]
DC50: ≤ 5 nM | Y: * (0<Y≤20%)

CC1(C)C(=O)N(c2cnc(C#N)c(C(F)(F)F)c2)C(=S)N1[C@H]1CC[C@H](CCCN2CCN(CC(=O)Nc3cc(C4CCC(=O)NC4=O)ccn3)[C@@H](C(F)(F)F)C2)CC1 (stereo partly drawn) [Cmpd 23, 2-((R)-4-(3-((trans)-4-(3-(6-Cyano-5-(trifluoromethyl)pyridin-3-yl)-5,5-dimethyl-4-oxo-2-thioxoimidazolidin-1-yl)cyclohexyl)propyl)-2-(trifluoromethyl)piperazin-1-yl)-N-(4-(2,6-dioxopiperidin-3-yl)pyridin-2-yl)acetamide]
DC50: 5 to 50 nM | Y: * (0<Y≤20%)

CC1(C)C(=O)N(c2ccc(C#N)c(C(F)(F)F)c2)C(=S)N1[C@H]1CC[C@H](OCCCN2CCN(CC(=O)Nc3cc(C4CCC(=O)NC4=O)ccn3)[C@@H](C(F)(F)F)C2)CC1 (stereo partly drawn) [Cmpd 24, 2-((R)-4-(3-(((trans)-4-(3-(4-Cyano-3-(trifluoromethyl)phenyl)-5,5-dimethyl-4-oxo-2-thioxoimidazolidin-1-yl)cyclohexyl)oxy)propyl)-2-(trifluoromethyl)piperazin-1-yl)-N-(4-(2,6-dioxopiperidin-3-yl)pyridin-2-yl)acetamide]
DC50: ≤ 5 nM | Y: * (0<Y≤20%)

CC1(C)C(=O)N(c2cnc(C#N)c(C(F)(F)F)c2)C(=S)N1[C@H]1CC[C@H](OCCCN2CCN(CC(=O)Nc3cc(C4CCC(=O)NC4=O)ccn3)[C@@H](C(F)(F)F)C2)CC1 (stereo partly drawn) [Cmpd 25, 2-((R)-4-(3-(((trans)-4-(3-(6-Cyano-5-(trifluoromethyl)pyridin-3-yl)-5,5-dimethyl-4-oxo-2-thioxoimidazolidin-1-yl)cyclohexyl)oxy)propyl)-2-(trifluoromethyl)piperazin-1-yl)-N-(4-(2,6-dioxopiperidin-3-yl)pyridin-2-yl)acetamide]
DC50: ≤ 5 nM | Y: * (0<Y≤20%)

C[C@@H]1C[C@H](OCCO[C@H]2CC[C@H](N3C(=S)N(c4cnc(C#N)c(C(F)(F)F)c4)C(=O)C3(C)C)CC2)C[C@H](C)N1CC(=O)Nc1cc(C2CCC(=O)NC2=O)ccn1 (stereo partly drawn) [Cmpd 26, 2-((2R,4r,6S)-4-(2-(((trans)-4-(3-(6-Cyano-5-(trifluoromethyl)pyridin-3-yl)-5,5-dimethyl-4-oxo-2-thioxoimidazolidin-1-yl)cyclohexyl)oxy)ethoxy)-2,6-dimethylpiperidin-1-yl)-N-(4-(2,6-dioxopiperidin-3-yl)pyridin-2-yl)acetamide]
DC50: ≤ 5 nM | Y: ** (20%<Y≤40%)

C[C@@H]1C[C@H](OCC[C@H]2CC[C@H](N3C(=S)N(c4ccc(C#N)c(C(F)(F)F)c4)C(=O)C3(C)C)CC2)C[C@H](C)N1CC(=O)Nc1cc(C2CCC(=O)NC2=O)ccn1 (stereo partly drawn) [Cmpd 27, 2-((2R,4r,6S)-4-(2-((trans)-4-(3-(4-Cyano-3-(trifluoromethyl)phenyl)-5,5-dimethyl-4-oxo-2-thioxoimidazolidin-1-yl)cyclohexyl)ethoxy)-2,6-dimethylpiperidin-1-yl)-N-(4-(2,6-dioxopiperidin-3-yl)pyridin-2-yl)acetamide]
DC50: 5 to 50 nM | Y: ** (20%<Y≤40%)

C[C@@H]1C[C@H](OCCC[C@H]2CC[C@H](N3C(=S)N(c4ccc(C#N)c(C(F)(F)F)c4)C(=O)C3(C)C)CC2)C[C@H](C)N1CC(=O)Nc1cc(C2CCC(=O)NC2=O)ccn1 (stereo partly drawn) [Cmpd 28, 2-((2R,4r,6S)-4-(3-((trans)-4-(3-(4-Cyano-3-(trifluoromethyl)phenyl)-5,5-dimethyl-4-oxo-2-thioxoimidazolidin-1-yl)cyclohexyl)propoxy)-2,6-dimethylpiperidin-1-yl)-N-(4-(2,6-dioxopiperidin-3-yl)pyridin-2-yl)acetamide]
DC50: 5 to 50 nM | Y: ** (20%<Y≤40%)
